Test results reported in US5972698A, “Tryptase inhibitor” (Novartis Corporation, priority 1993, dated 1999).
*1 amine or outer side, *2 acyl side, *3 side chain or, on linkers, in order; H or OH if unused. Where a SMILES comes first, the peptide text is derived from it. CO = O=C([*:1])[*:2]

Tests used:
[1] = biological target: Human tryptase; settings: cited from earlier work
[2] = Isoelectric focussing (PhastSystem); format: physicochemical
Method: a) SDS-PAGE and isoelectric focussing (IEF) SDS-PAGEs of the proteins were performed with 15-25% polyacrylamide gels following the procedure of Laemmli [Laemmli, 1970]. The gels were either self-prepared and run in a conventional apparatus or in the PhastSystem (Pharmacia, Sollentuna, Sweden). Isoelectric focussing was also done with the PhastSystem using the isoelectric focussing calibration kit pH 3-10.

[3] = biological target: Tryptase (human); test: Inhibition of the amidolytic activity of tryptase / equilibrium dissociation constants (Ki); format: biochemical
Method: h) Inhibitory activity: During the purification procedure the inhibitor was followed by measurements of its effect on the amidolytic activity of tryptase. Therefore, samples were incubated with tryptase (0.59 nM) in 50 mM Tris/HCl (pH 7.6), 150 mM NaCl, 50 μg/ml bovine lung heparin, and 0.1% (w/v) bovine serum albumin for 25 min at 37° C. The assay was started by addition of the substrate tos-Gly-Pro-Arg-pNa at a final concentration of 0.1 mM. The released nitroaniline was monitored spectrometrically at 405 nm for 3.5 min using a UVIKON 930 photometer (Kontron; Eching, Germany).
k) Determination of equilibrium constants: To determine the specificity of the inhibitor, its effect on the amidolytic activity of various serine proteinases (see Tab. 5) was determined. […] The residual enzyme activity was measured after addition of a suitable substrate.
Equilibrium dissociation constants (Ki) for the complexes of the inhibitor with individual proteases were determined essentially as described by Bieth [Bieth, 1980]. Briefly, increasing concentrations of the inhibitor were incubated with a constant concentration of the enzyme; the time necessary to reach equilibration of the enzyme-inhibitor complex was determined for each protease in preliminary experiments. Substrate was then added, and the residual enzyme activity measured. […]

Row | Compound | inhibition of tryptase (literature) [1] | also measured
1 | CC(C)[C@H](NC(=O)[C@H](CCCNC(=N)N)NC(=O)N[C@@H](Cc1ccccc1)C(=O)O)C(=O)N[C@H](C=O)CCCNC(=N)N [antipain] ({Phe-CO}-Arg-Val-Arg-aldehyde) |  | Ki values for the complexes with tryptase (literature) [1]: micromolar range
2 | CC(=O)N[C@@H](CC(C)C)C(=O)N[C@@H](CC(C)C)C(=O)N[C@H](C=O)CCCNC(=N)N [leupeptin] |  | Ki values for the complexes with tryptase (literature) [1]: micromolar range
3 | O=S(=O)(F)Cc1ccccc1 [phenylmethylsulfonyl fluoride] | inhibited | 
4 | C1 -esterase inhibitor: naturally occurring antiproteinase | not inhibited | 
5 | alpha1 -proteinase inhibitor: naturally occurring antiproteinase | not inhibited | 
6 | alpha2 -macroglobulin: naturally occurring antiproteinase | not inhibited | 
7 | antithrombin III | not inhibited | 
8 | aprotinin | not affected | 
9 | ecotin: proteinase inhibitor | not affected | 
10 | hirudin | not affected | 
11 | rLDTI-C: recombinant form C inhibitor expressed in Saccharomyces cerevisiae with secretion vector pVT102U/alpha and strain S-78 (KKVCACPKILKPVCGSDGRTYANSCIARCNGVSIKSEGSCPTGILN) |  | isoelectric point [2]: > 10 pH; Ki ([3]; Ki for the inhibition of two of the four subunits of the tryptase-tetramer, substrate Tos-Gly-Pro-Arg-pNA, read-out: Ki (second Ki column)): 1.9 nM; maximal inhibition of human tryptase ([3]; substrate tos-Gly-Pro-Arg-pNa): ~ 50%
12 | tosyl-L-lysine chloromethyl ketone | inhibited | 
